Source: US6380254B2, “Method and composition for treating and preventing pathogenic effects caused by intracellular calcium overload” (Leigh Biotechnology, Inc., priority 1994, dated 2002)
Read-outs that look alike come from different tables or passages of the source.

How the values were obtained:
Assay type in all cases: cell-based, rat
[1] = tested on: Hepatocytes; test: Viability of post-anaerobic hepatocytes (fraction of cytosolic lactate dehydrogenase retained intracellularly); conditions: for viability at 5000 µM: Rattus norvegicus, Hepatocyte, 1.5 h, read-out: SURVIVING FRACTION; for MEAN SURVIVING FRACTION: glycine 20 mM, mixture less than 5 mM total, 90 min anaerobic then 90 minute aerobic incubation, untreated .384
Procedure: Both perfusates were introduced in situ at a rate of 20 ml/minute. The liver was dispersed by several passages through a glass pipette tip (4 mm aperture), subsequently filtered through two layers of a 250 micron Nylon mesh, and diluted in 50 ml of a chilled suspension medium of the BSS containing 1.3 mM CaCl2, 1.3 mM MgCl2, 20 mM glucose, and 5 mM pyruvate. The crude suspension was purified by differential centrifugation (100 g per 2 minutes).
The purified cell suspension, consisting primarily of liver parenchymal cells, was washed three times with the cold suspension medium. The final pellet was resuspended at a concentration of 20 mg cell protein (Biuret assay) per milliliter of suspension medium and incubated aerobically for one hour at 24° C. in a 50 ml polypropylene centrifuge tube mounted horizontally on the rocker tray of a shaking water bath (30 strokes per minute). At the end of this incubation period, hepatocyte viability was assessed by trypan blue exclusion.
Samples of the purified cell suspension were then transferred to two 50 ml polypropylene test tubes. One of these tubes was purged of oxygen by flushing the gas phase with argon and then permitting the cells to consume the residual oxygen in the medium. […] This anaerobic suspension was maintained in a 37° C.. water bath without agitation.
The other test tube was supplemented with oxygen by flushing the gas phase with pure oxygen. Diffusion of oxygen from the gas phase to this aerobic reference cell suspension was encouraged by orienting the tube in such a fashion as to maximize surface area and by gently agitating the suspension in the 37° C.. water bath. After 90 minutes, both suspension were removed from the water bath and the cells were washed two times with an ice cold suspension buffer and then resuspended in a warm, aerated suspension medium to a concentration of 10 mg cell protein.
A one milliliter sample of the anaerobic suspension was added to 4 ml of warm, aerated suspension medium containing either no additives (for the untreated cells), or a single amino carboxylic acid at a concentration of 5 mM. Cell viability was assessed in each test population at the end of a subsequent 90 minute aerobic incubation at 37° C. by measuring the fraction of cytosolic lactate dehydrogenase activity retained intracellularly.
Cell viability was assessed as the fraction of the cytosolic enzyme, lactate dehydrogenase, retained intracellularly following a 90 minute aerobic incubation. A minimum of four observations were made and recorded.
(§1) Hepatocytes were incubated anaerobically for 90 minutes, then washed and resuspended in fresh medium containing either no additives (untreated cells), trifluoperazine (25 μM), glycine (20 mM or 150 mg per 100 ml), or a mixture of amino carboxylic acids (total amino carboxylic acid concentration was less than 5 mM or 65 mg per 100 ml). Cell viability was assessed as the fraction of lactate dehydrogenase retained intracellularly following a 90 minute aerobic incubation. A minimum of four observations were made and recorded.
as §1, with “additives (for the untreated” for “additives (untreated”, “cells), neomycin sulfate (10 mM),” for “cells), trifluoperazine (25 μM),”, “or the” for “or a”

[2] = tested on: Hepatocytes; test: as above; conditions: glycine 20 mM, mixture less than 5 mM total, 90 min anaerobic then 90 minute aerobic incubation
[3] = tested on: glycogen phosphorylase a; test: Intracellular calcium activity in post-anaerobic hepatocytes, expressed as glycogen phosphorylase a activity; conditions: mmols of PO^−3 liberated from glucose-1-phosphate per 1 million viable post-anaerobic cells; chlorpromazine 25 μM, glycine 20 mM, mixture less than 5 mM total; untreated 165.5
Procedure: Kinase is stimulated by increased intracellular calcium concentration via calmodulin. […] Thera., Vol. 238, pp. 186-191, 1986. […] Cell viability was assessed as the fraction of lactate dehydrogenase retained intracellularly following a 90 minute aerobic incubation. Intracellular calcium activity was assessed in these post-anaerobic cells by the method described in Long and Moore, supra, and expressed in terms of glycogen phosphorylase a activity. […] A minimum of four observations were made and recorded.

[4] = single amino carboxylic acid at 5 mM, 90 min anaerobic, then 90 minute aerobic incubation at 37° C., untreated 0.25
[5] = Table 4, neomycin sulfate 10 mM
[6] = Table 6, desferrioxamine 25 μM, untreated .363
[7] = Table 2, chlorpromazine 25 μM, mean with standard deviation, untreated .342
[8] = Table 5, alpha tocopherol succinate 100 mg per 100 ml, untreated .352

## NC(=O)C[C@H](N)C(=O)O [Asparagine, asparagine]
[1]; [4]
  viability at 5000 µM: 54%

## neomycin sulfate [reference compound]
[1]; [5]
  MEAN SURVIVING FRACTION: .566 ± .043

## CC(=O)N(O)CCCCCNC(=O)CCC(=O)N(O)CCCCCNC(=O)CCC(=O)N(O)CCCCCN [Desferrioxamine, desferrioxamine, reference compound]
[2]; [6]
  MEAN SURVIVING FRACTION: .393 ± .029

## N[C@@H](Cc1ccc(O)cc1)C(=O)O [Tyrosine, tyrosine, reference compound]
[1]; [4]
  viability at 5000 µM: 31%

## CC(C)[C@H](N)C(=O)O [Valine, valine, reference compound]
[1]; [4]
  viability at 5000 µM: 28%

## CC(C)C[C@H](N)C(=O)O [Leucine, leucine, reference compound]
[1]; [4]
  viability at 5000 µM: 32%

## CN(C)CCCN1c2ccccc2Sc2ccc(Cl)cc21 [Chlorpromazine, chlorpromazine, reference compound]
[2]; [7]
  MEAN SURVIVING FRACTION: .567 ± .055

## N=C(N)NCCC[C@H](N)C(=O)O [Arginine, arginine]
[1]
  viability at 5000 µM: 51%

## Cc1c(C)c2c(c(C)c1O)CC[C@@](C)(CCC[C@H](C)CCC[C@H](C)CCCC(C)C)O2 [alpha-tocopherol, reference compound]
[2]; [8]
  MEAN SURVIVING FRACTION: .421 ± .087

## NC(=O)CC[C@H](N)C(=O)O [Glutamine, glutamine]
[1]; [4]
  viability at 5000 µM: 52%

## N[C@@H](CCC(=O)O)C(=O)O [Glutamic acid, glutamic acid]
[1]
  viability at 5000 µM: 52%

## N[C@@H](Cc1c[nH]cn1)C(=O)O [Histidine, histidine]
[1]; [4]
  viability at 5000 µM: 50%

## O=C(O)[C@@H]1CCCN1 [Proline, proline]
[1]; [4]
  viability at 5000 µM: 49%

## C[C@H](N)C(=O)O [Alanine, alanine]
[1]; [4]
  viability at 5000 µM: 51%

## NCC(=O)O [Glycine, glycine]
[2]; [7]
  MEAN SURVIVING FRACTION: .698 ± .065
[2]; [8]
  MEAN SURVIVING FRACTION: .749 ± .020
[2]; [6]
  MEAN SURVIVING FRACTION: .696 ± .038
[1]; [4]
  viability at 5000 µM: 53%
[1]; Table 3, trifluoperazine 25 μM
  MEAN SURVIVING FRACTION: .739 ± .014
[1]; [5]
  MEAN SURVIVING FRACTION: .694 ± .033
[3]
  GLYCOGEN PHOSPHORYLASE A ACTIVITY: 124.8 ± 22.9 mmols

## N[C@@H](CO)C(=O)O [Serine, serine]
[1]; [4]
  viability at 5000 µM: 40%

## CC[C@H](C)[C@H](N)C(=O)O [Isoleucine, isoleucine, reference compound]
[1]; [4]
  viability at 5000 µM: 29%

## CN1CCN(CCCN2c3ccccc3Sc3ccc(C(F)(F)F)cc32)CC1 [Trifluoperazine, trifluoperazine, reference compound]
[1]; Table 3, trifluoperazine 25 μM
  MEAN SURVIVING FRACTION: .550 ± .061
